Test results published in patent US20020102533A1, “Hepatitis C protease exosite for inhibit or design” (priority 2000, published 2002).
Entries after “also recorded” stand apart in the source; their conditions may differ. Where a SMILES comes first, the peptide text is derived from it. [ ]: non-standard residue; d: D form. Dip = N[C@H](C(=O)O)C(c1ccccc1)c1ccccc1; Cha = N[C@@H](CC1CCCCC1)C(=O)O

Legend:
[1] = biological target: T1, HCV NS3 protease, genotype 1a (Hepatitis C virus genotype 1a, UniProt P26664); experiment: biochemical; assay type: biochemical
T1 construct: NS3 protease catalytic domain (amino acids 1 to 192); MGAQH expression leader (5 aa), or alternatively the 15 aa His tag […]; made in house; host or cells: E. coli BL21 (DE3)
Experimental: (§1) Endpoint HPLC based HCV protease assay: HCV protease (5 nM) was incubated in 50 mM Tris pH 7.5, 0.1% maltoside, 5 mM DTT and appropriate amounts of glycerol, NS4A peptide, and substrate. Routine assays were 100 μl in volume containing 15% or 50% glycerol, 5.0 μM NS4A peptide and 5.0 μM substrate. Reactions were run at room temperature (˜22° C.) and quenched by the addition of 4 μl of 10% TFA before 10% of the substrate was consumed. Incubation times were 20 minutes for the ester substrate (Peptide Substrate A) and 80 minutes for the P6-P7′ amide substrate (Peptide Substrate B). […] Incubation times were 90 min. Samples, 50 μl, were injected onto an Hewlett Packard 1090 Liquid Chromatograph containing a Dynamax-60A C18 column. The column was eluted with a linear gradient from 10% acetonitrile to 45% acetonitrile in water. All solvents contained 0.1% TFA. A flow rate of 1 ml/min was used. […] The product peaks were detected by fluorescence excitation at 350 nm and emission at 500 nm.
Continuous fluorescence-based HCV protease assay: This asay was a modified version of method of Taliani (Taliani, M.; et al. Anal. Biochem. 240, 60-67, 1996) using Substrate A (Ac-D-E-D(EDANS)-E-E-Abuψ[COO]-A-S-K(DABCYL)—NH2). Assays were run in a 96-well microtiter plates using a Perkin Elmer Luminescence Spectrometer LS50B exciting at 350 nm (10 nm slit) and emitting at 500 nm (10 nm slit). In a typical assay the protease (1-4 nM) was incubated with 10 μM NS4a peptide in 50 mM Tris pH 7.0, 5.0 mM DTT, 50% glycerol, and […] for 15 min. Catalysis was initiated by the addition of Substrate A (final concentration 5.0 μM). Assays were also run under conditions where 15% glycerol, 0.1% Maltoside were substituted for 50% glycerol and 5% CHAPS. Enzymatic activity was monitored by measuring the increase in fluorescence with time using excitation wavelength of 350 nm and an emission wavelength of 500 nm. Both slit widths were 10 nm. Inhibition constants were determined from a nonlinear least squares fit of the data to the equation Vi/Vo=1/(1+[I]/Kiapp). Where Vi is the velocity measured in the presence of inhibitor (inhibitors were introduced with the NS4a peptide) and Vo is the velocity of controls. The thermodynamic Ki was determined from Kiapparent via the relationship for competitive kinetics: Ki=Kiapp/(1+[S]/Km) where [S] is the substrate concentration.
Footnote a for Table 1 references the assay condiditions: 1) Substrate A=P6-P3′, HCV protease (4.0 nM) was incubated with various concentrations of truncated analogs of Q9692 in 50 mM Tris buffer, pH 7.0, 15% glycerol, 0.1% maltoside, 5 mM DTT and 10 μM NS4A peptide in a 96-well microtiter plate at room temperature. After 15 minutes catalysis was initiated by the addition of Ac-D-E-D(EDANS)-E-E-Abuψ[COO]-A-S-K(DABCYL)—NH2 (final concentration 5.0 μM in a total reaction volume of 200 μl). Enzymatic activity was monitored by measuring the increase in fluorescence with time on a Perkin Elmer LS50B luminescence spectrometer (excitation 350 nm, emission 500 nm, both slits 10 nm). […] Assays were 100 μl in volume, reactions were run at room temperature (˜22 C) for 80 minutes (<10% of the substrate was consumed). The addition of 4 μl of 10% TFA quenched the reactions. Quantitation of hydrolysis products was determined by measuring fluorescent peak areas following HPLC. Products were detected by excitation at 350 nm and measuring emission at 500 nm. Aliquots (50 μl) of quenched enzymatic reactions were injected on an Hewlett Packard 1090 HPLC equipped with a ¼ inch Dynamex 60A C18 column. A linear gradient from 10% acetonitrile:H2O to 45% acetonitrile:H2O was run over a period of 15 min at a flow rate of 1.0 ml/min. All solvents contained 0.1% TFA.

[2] = biological target: T1, HCV NS3 protease, genotype 1a; assay type: biochemical; settings: P6-P3′ amide substrate
Experimental: as §1
Comparison of the effects of Q9692 on the hydrolysis of a P6-P3′ ester substrate (FIG. 2A) and a P6-P7′ substrate (FIG. 2B) and P6-P3′ amide substrate (FIG. 2C) were determined. […] Hydrolysis products were quantitated by measuring fluorescent peak areas following HPLC and detection by excitation at 350 nm and measuring emission at 500 nm. […]

HCV protease (NS3) = biological target: T2, HCV protease (NS3) (Hepatitis C virus genotype 1a, UniProt P26664); assay type: binding
T2 construct: NS3 protease catalytic domain (amino acids 1 to 192); MGAQH expression leader (5 aa), or alternatively the 15 aa His tag MRGSHHHHHHMGAQH; made in house; host or cells: E. coli BL21 (DE3)
Experimental: Intrinsic fluorescence studies: Assays were conducted in 0.5 ml fluorescent cuvettes (0.4 ml total volume). […] Fluorescence spectra were obtained by exiting at 280 nm (10 nm slit) and scanning the emission profile from 300 to 400 nm (10 nm slit) at 1 nm s^−1.
Fluorescence spectrum of HCV protease (0.45 μM) in 50 mM Tris buffer, pH 7.0, containing 15% glycerol, and 0.10% maltoside were measured over a range of 300-400 nm using an excitation wavelength of 280 nm. Both excitation and emission slit widths were 10 nm and the scan rate was 1.0 nm sec^−1.

HCV protease = HCV protease (Hepatitis C virus genotype 1b, UniProt P26663); settings: substrate Ac-[…](Edans)—NH2; cited from earlier work
[3] = P6-P3′ ester substrate, 2 μM Q9692

CC(=O)N[C@@H](CC(=O)O)C(=O)N[C@@H](CCC(=O)O)C(=O)N[C@H](C(=O)N[C@@H](CCC(=O)O)C(=O)N[C@@H](CC1CCCCC1)C(=O)N[C@@H](CS)C(=O)O)C(c1ccccc1)c1ccccc1 [Q9692, Ac-Asp-Glu-Dpa-Glu-Cha-Cys—OH] (Ac-DE[Dip]E[Cha]C-OH)
Dixon plots of 1/V versus Q9717 concentration ([1]; 5 μM substrate spanning P6-P3′): intersecting lines
concentration of maximum stimulation ([1]; P6-P3′ ester substrate): 4 µM
concentrations at which inhibition was observed ([1]; P6-P3′ ester substrate): greater than 10.0 μM
kcat of substrate [1, 3]: relatively unchanged
reduction in Km of substrate [1, 3]: 5 fold
activation of the enzyme (maximum stimulation) ([1]; P6-P3′ ester substrate, maximum at 4 μM Q9692): approximately 5 fold
(S = P6-P3′) Inhibition(+) / Activation (−) ([1]; substrate A): −
inhibition pattern [2]: mixed inhibition
further increase in intrinsic fluorescence (HCV protease (NS3); 5.0 μM added after 12.5 μM NS4a): 70%
effect on fluorescence spectrum (HCV protease (NS3); in the absence of NS4a): little effect
effect on intrinsic fluorescence (HCV protease (NS3); in the presence of NS4a): near doubling of intrinsic fluorescence; also recorded: nearly doubles the intrinsic fluorescence; also recorded: large increase in fluorescence
Ki (HCV protease): 50 nM
